The assay has as its target Human immunodeficiency virus type 1 protease (Human immunodeficiency virus 1, UniProt Q72874, Q7K). As to the kind of experiment: Inhibition of HIV1 protease Q7K mutant by FRET method.

These results are taken from ChEMBL document CHEMBL1143396, “Additivity in the analysis and design of HIV protease inhibitors” (J Med Chem, 2009).

Consider `CCCCCN(C[C@@H](O)[C@H](Cc1ccccc1)NC(=O)[C@@H](NC(C)=O)C(C)C)S(=O)(=O)c1ccc(OC)cc1`, for which the Ki runs as follows: (read-out: Ki) 0.038 nM; (read-out: pKi (converted)) 0.038 nM.

On to `Cc1cccc(C(=O)N[C@@H](Cc2ccccc2)[C@H](O)CN(C[C@H](C)O)S(=O)(=O)c2ccco2)n1`, for which the Ki (read-out: Ki) was > 10000 nM.

Take `CNC(=O)CCC(=O)N[C@@H](Cc1ccccc1)[C@H](O)CN(C[C@@H](C)O)S(=O)(=O)c1cccc(OC)c1`: the Ki is, setting by setting: (read-out: Ki) 1170 nM; (read-out: pKi (converted)) 1170 nM.

`CCC(=O)CCC(=O)N[C@@H](Cc1ccccc1)[C@H](O)CN(CC(C)C)S(=O)(=O)c1ccc(OC)cc1`: the Ki by setting is: (read-out: Ki) 0.24 nM; (read-out: pKi (converted)) 0.24 nM.

In the case of `CC(=O)/C=C/C(=O)N[C@@H](Cc1ccccc1)[C@H](O)CN(Cc1cccs1)S(=O)(=O)c1cc(F)c(F)cc1F`, the Ki is, setting by setting: (read-out: Ki) 610 nM; (read-out: pKi (converted)) 617 nM.

`CC[C@H](C)CN(C[C@@H](O)[C@H](Cc1ccccc1)NC(=O)[C@H](C)NC(C)=O)S(=O)(=O)c1ccc(OC)cc1`: the Ki is, setting by setting: (read-out: Ki) 0.046 nM; (read-out: pKi (converted)) 0.0457 nM.

Regarding `CCCCCN(C[C@@H](O)[C@H](Cc1ccccc1)NC(=O)CCC(=O)CC)S(=O)(=O)c1ccc(OC)cc1`, the Ki reads like this: (read-out: Ki) 4.17 nM; (read-out: pKi (converted)) 4.17 nM.

Regarding `COc1ccc(S(=O)(=O)N(CC(C)C)C[C@@H](O)[C@H](Cc2ccccc2)Nc2cccc(F)c2C)cc1`, the Ki (read-out: Ki) was 0.093 nM and the Ki (read-out: pKi (converted)) was 0.0933 nM.

With `COc1cccc(S(=O)(=O)N(C[C@H]2CCCO2)C[C@@H](O)[C@H](Cc2ccccc2)NC(=O)[C@@H]2CN(c3ccccc3)C(=O)O2)c1`, the Ki was 42 nM (read-out: Ki) and 41.7 nM (read-out: pKi (converted)).

Regarding `CCCCCN(C[C@@H](O)[C@H](Cc1ccccc1)NC(=O)C[C@@H](O)CC)S(=O)(=O)c1ccc(OC)cc1`, the Ki (read-out: Ki) came to 0.86 nM and the Ki (read-out: pKi (converted)) was 0.851 nM.
